Values of other authors as cited in patent US20100063004A1, “TOPICAL PHARMACEUTICAL COMPOSITION” (priority 2006, published 2010).

Columns and labels:
[1] = test system: herpes labialis (HSV-1); details: 10% n-docosanol suspended in an aqueous system containing a non-ionic surfactant and a carrier; humans with herpes labialis (HSV-1)
[2] = test system: lipid enveloped viruses such as herpes
[3] = test system: enlargement of the prostate gland; details: taken orally

CCCCCCCCCCCCCCCCCCCCCCO [n-docosanol]
mean healing time of lesions [1]: shortened | solubility in water: insoluble | activity in cell cultures against lipid enveloped viruses [2]: broad activity | therapeutic effect in enlargement of the prostate gland [3]: therapeutically effective
